{"source": "paper PMC7447632", "about": "“Highly functionalized β-lactams and 2-ketopiperazines as TRPM8 antagonists with antiallodynic activity” (Scientific Reports, 2020)", "system": "oxaliplatin-induced cold allodynia", "experiment": "Oxaliplatin-induced cold allodynia in mice (acetone test)", "assay_type": "in vivo", "conditions": "for Cold allodynia (cold-induced paw licking, acetone test): oxaliplatin-treated male mice", "excerpt": "Several chemotherapeutic agents in first clinical line induce peripheral neuropathies (known as CIPN), affecting million patients worldwide and limiting the dose administered to them, as well as the quality of life of many survivors. In oxaliplatin CIPN, the increased sensitivity to cold has been correlated to an augmented expression of TRPM8 channels, among others[4]–[6],[57]. In good correlation, there are recent experimental evidences describing that TRPM8 antagonists are able to decrease oxaliplatin-induced allodynia and cold hypersensitivity[34],[58]. According to these discoveries, we decided to explore the effects of β-lactam 24a in an in vivo model of oxaliplatin CIPN, using acetone assay for monitoring cold allodynia. In male mice, the injection of oxaliplatin on days 1, 3 and 5 at a 6 mg/kg dose produces peripheral cold allodynia.\nFigure 4 Effects of compound 24a on the oxaliplatin-induced cold allodynia (acetone test). Male mice were treated with oxaliplatin (6 mg/Kg, ip) or vehicle on days 1, 3 and 5. Then, compound 24a (1 µg/ipl, A or 3 µg/ipl, B) was administered to the oxaliplatin treated animals, and the time-course of cold allodynia was measured. Data are given ± SME (n = 5). **P < 0.05; ***P < 0.001; ****P < 0.0001.\nMale C57-mice (≈30 g) (Harlam, Holland) were used for the study. All experiments were approved by the Institutional Animal and Ethical Committee of the Universidad Miguel Hernandez where experiments were conducted and they were in accordance with the guidelines of the Economic European Community and the Committee for Research and Ethical Issues of the International Association for the Study of Pain. All parts of the study concerning animal care were performed under the control of veterinarians.\nAs previously described, oxaliplatin (Tocris) was dissolved in water with gentle warming and was […] injected on days 1, 3 and 5 at a 6 mg/kg dose. The day 7 after administration, experiments were performed. Together with Oxaliplatin injection, saline and a 5% Mannitol solution were intraperitoneally injected to prevent kidney damage and dehydration. The compound 24a stock was prepared in DMSO (Sigma-Aldrich) and diluted in saline for injections. Compound at different doses (1 to 3 μg) was injected into the plantar surface (25 μL) of the right hind paw of mice. Cold chemical thermal sensitivity was assessed using acetone drop method. Mice were placed in a metal mesh cage and allowed to habituate for approximately 30 min in order to acclimatize them. […] Cold chemical sensitive reaction with respect to paw licking was recorded as a positive response (nociceptive pain response). The responses were measured for 20-s with a digital stopwatch. For each measurement, the paw was sampled twice and the mean was calculated. […]", "note": "Entries after “also recorded” stand apart in the source; their conditions may differ.", "data": [{"smiles": "C[C@@H]1C(=O)N(C[C@H](Cc2ccccc2)NC(=O)OCc2ccccc2)[C@]1(Cc1ccccc1)C(=O)OCc1ccccc1", "note": "[Compound 24a, 4S-Benzyl-4-benzyloxycarbonyl-3S-methyl-1-[(2′S-benzyloxycarbonylamino-3′-phenyl)prop-1′-yl]-2-oxoazetidine]", "values": [{"measurement": "Cold allodynia (cold-induced paw licking, acetone test)", "setting": "1 μg intraplantar", "value": "attenuates the cold-induced paw licking in a significant manner"}, {"measurement": "Cold allodynia (cold-induced paw licking, acetone test)", "setting": "3 µg intraplantar", "value": "clearly increased at 15 min, and firmly maintained up to 60 min"}, {"measurement": "Time of maximum antiallodynic activity", "setting": "intraplantar, after administration", "value": "30 to 60", "unit": "min"}, {"measurement": "Antiallodynic effect in oxaliplatin-induced peripheral neuropathy", "setting": "mice, dose not stated", "value": "significantly reduced cold allodynia; also recorded: significant antiallodynic effects"}]}]}
